Experiments:
Format in all cases: physicochemical
[1] = Mixed solvent cooling crystallization trials (solubility in six solvents); details: 200 mg amorphous material; MeOH, MeCN, MEK, THF, EtOAc, TBME; solutions at 0.5 vol., 25° C., ca. 66 hours equilibration
Experimental: Amorphous (S)—N-(1-deutero-1-(3-chloro-5-fluoro-2-((2-methyl-4-(1-methyl-1H-1,2,4-triazol-5-yl)quinolin-8-yloxy)methyl)phenyl)ethyl)-2-(difluoromethoxy)acetamide, 6×200 mg, was weighed into crystallisation tubes and charged with solvents (MeOH, MeCN, MEK, THE, EtOAc and TBME) in 0.05 ml (0.25 vol.) aliquots at 25° C. […] Additional solvent (made up to 0.5 vol.) yielded thick yellow solutions. The solutions were equilibrated at 25° C. for ca. 66 hours though this had no impact on the yellow solutions.
Additional solvent was charged to each API solution up to 1 ml (5 vol.) and the solutions were heated to 40° C. and clarified. Heptane was charged in 50 μL aliquots to each solution before cooling to 25° C. over 1 hour. The volume charged and observations at 40 and 25° C. are detailed in Table 3.

[2] = Slow evaporative crystallisation trials (solubility observed in solvents)
Experimental: Into crystallisation tubes (5 ml vol) was charged 20 mg of amorphous (S)—N-(1-deutero-1-(3-chloro-5-fluoro-2-((2-methyl-4-(1-methyl-1H-1,2,4-triazol-5-yl)quinolin-8-yloxy)methyl)phenyl)ethyl)-2-(difluoromethoxy)acetamide. A total of 26 solvents or solvent mixtures were charged to the tubes and the solids agitated over a period of 48 hours at RT and cooled to 0° C.
Slow evaporative crystallisation trials were continued by transferring samples to smaller tapered tubes without agitation and needle bleeds fitted. Slow evaporative crystallisation was attempted with scratching at various points to help induce crystallisation.
Following two weeks, liquors remained in most cases with no evidence of crystallisation. At this point heteronuclear seeding was attempted with a very similar crystalline API source. This had no impact upon the results. The majority of test cases returned clear glasses.

[3] = Gravimetric Vapour Sorption (GVS); details: 25° C.
Experimental: Sorption isotherms were obtained using a Hiden Isochema moisture sorption analyser (model IGAsorp), controlled by IGAsorp Systems Software V6.50.48. The sample was maintained at a constant temperature (25° C.) by the instrument controls. The humidity was controlled by mixing streams of dry and wet nitrogen, with a total flow of 250 ml.min^−1. The instrument was verified for relative humidity content by measuring three calibrated Rotronic salt solutions (10-50-88%). The weight change of the sample was monitored as a function of humidity by a microbalance (accuracy+/−0.005 mg). A defined amount of sample was placed in a tared mesh stainless steel basket under ambient conditions. A full experimental cycle typically consisted of three scans (sorption, desorption and sorption) at a constant temperature (25° C.) and 10% RH intervals over a 0-90% range (60 minutes for each humidity level).

Compound | solubility in the 6 solvents investigated [1] | solubility in solvents ([2]; 20 mg amorphous material, 26 solvents or solvent mixtures, agitated 48 hours at RT and cooled to 0° C., in the majority of solvents) | solubility in solvents (continued trials) ([2]; continued slow evaporation without agitation, scratching, heteronuclear seeding, 3 weeks) | GVS overall weight change ([3]; between 0 and 90% RH) | GVS hysteresis ([3]; between 10 and 80% RH)
[2H][C@@](C)(NC(=O)COC(F)F)c1cc(F)cc(Cl)c1COc1cccc2c(-c3ncnn3C)cc(C)nc12 [(S)—N-(1-deutero-1-(3-chloro-5-fluoro-2-((2-methyl-4-(1-methyl-1H-1,2,4-triazol-5-yl)quinolin-8-yloxy)methyl)phenyl)ethyl)-2-(difluoromethoxy)acetamide] | high solubility | extreme solubility | extreme solubility |  | 
[2H][C@@](C)(NC(=O)COC(F)F)c1cc(F)cc(Cl)c1COc1cccc2c(-c3ncnn3C)cc(C)nc12 [Form A, (S)—N-(1-deutero-1-(3-chloro-5-fluoro-2-((2-methyl-4-(1-methyl-1H-1,2,4-triazol-5-yl)quinolin-8-yloxy)methyl)phenyl)ethyl)-2-(difluoromethoxy)acetamide monohydrate] |  |  |  | ca. 1.9 wt % | 0.2-0.4 wt %

From patent US12692246B2, “Solid form of a bradykinin B2-receptor antagonist” (PHARVARIS GMBH, priority 2021, dated 2026)
